Data: PMC12090182, “Repurposing of the RIPK1-Selective Benzo[1,4]oxazepin-4-one Scaffold for the Development of a Type III LIMK1/2 Inhibitor” (ACS Chemical Biology, 2025)

Test system: U2OS cells
Type: cell-based
Conditions: human, 0 h, 1 µM
Description: To assess the influence on cell health, a high-content screening in living cells called the multiplex high-content assay, as described previously by Tjaden et al., was performed.[38] In brief, HEK293T (ATCC CRL-1573) and U2OS (ATCCHTB-96) were cultured in DMEM plus L-glutamine (high glucose) supplemented by 10% FBS (Gibco) and penicillin/streptomycin (Gibco). MRC-9 fibroblasts ([…]) were cultured in EMEM plus L-glutamine supplemented by 10% FBS (Gibco) and penicillin/streptomycin (Gibco). Cells were seeded at a density of 1250 cells per well in a 384-well plate in a culture medium (cell culture microplate, PS, f-bottom, μClear, 781091, Greiner), with a volume of 50 μL per well. All outer wells were filled with 100 μL of PBS buffer (Gibco). […] The cell shape and fluorescence were measured before treatment and 12, 24, and 48 h after compound treatment using the CQ1 high-content confocal microscope (Yokogawa, Musashino, Japan). […] The compounds were tested at 1 and 10 μM, respectively. Acquired images of the cells were processed using Yokogawa CellPathfinder software (v3.04.02.02). […] Results were normalized to cells exposed to 0.1% DMSO. All compounds were tested in biological duplicates, and SEM (standard error of mean) was calculated of biological duplicates.

CN1C(=O)[C@@H](N2CCc3c(C(N)=O)nn(Cc4ccccc4)c3C2=O)COc2ccccc21 [Compound 11]
Population apoptotic cell (%): 66.67%
